Data from ChEMBL document CHEMBL1201861, “Genomics of Drug Sensitity in Cancer screening data, Wellcome Trust Sanger Institute”.

Legend:
Assay in all cases: cells
OCUB-M = type: functional, cell-based, Homo sapiens; conditions: Homo sapiens, OCUB-M;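 further: growth inhibition of the cancer cell line, read out through a cell viability assay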
Description: SANGER: Inhibition of human OCUB-M cell growth in a cell viability assay.

Ramos-2G6-4C10 = type: functional, cell-based, Homo sapiens; conditions: Homo sapiens, Ramos-2G6-4C10;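 further: growth inhibition of the cell line, measured by a cell viability read-out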
Description: SANGER: Inhibition of human Ramos-2G6-4C10 cell growth in a cell viability assay.

GOTO = type: functional, cell-based, Homo sapiens; conditions: Homo sapiens, GOTO;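 further: growth inhibition of GOTO cells, read out by a cell viability assay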
Description: SANGER: Inhibition of human GOTO cell growth in a cell viability assay.

IA-LM = type: functional, cell-based, Homo sapiens; conditions: Homo sapiens, IA-LM;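 further: cell viability assay measuring growth inhibition of human IA-LM cells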
Description: SANGER: Inhibition of human IA-LM cell growth in a cell viability assay.

RCC10RGB = type: functional, cell-based, Homo sapiens; conditions: Homo sapiens, RCC10RGB;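 further: growth inhibition of human RCC10RGB cells, read out by a cell viability assay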
Description: SANGER: Inhibition of human RCC10RGB cell growth in a cell viability assay.

U-87 MG = type: functional, cell-based, Homo sapiens, U-87MG ATCC; conditions: Homo sapiens, U-87 MG;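 further: growth inhibition of the cells measured with a viability assay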
Description: SANGER: Inhibition of human U-87-MG cell growth in a cell viability assay.

HOP-62 = type: functional, cell-based, Homo sapiens; conditions: Homo sapiens, HOP-62;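 further: cell growth inhibition determined with a viability assay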
Description: SANGER: Inhibition of human HOP-62 cell growth in a cell viability assay.

EW-11 = type: functional, cell-based, Homo sapiens; conditions: Homo sapiens, EW-11;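 further: growth inhibition of human EW-11 cells, measured with a cell viability assay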
Description: SANGER: Inhibition of human EW-11 cell growth in a cell viability assay.

U-266 = type: functional, cell-based, Homo sapiens; conditions: Homo sapiens, U-266
Description: SANGER: Inhibition of human U-266 cell growth in a cell viability assay.

RS4-11 = type: functional, cell-based, Homo sapiens; conditions: Homo sapiens, RS4-11;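 further: growth inhibition of RS4-11 cells, read out by a cell viability assay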
Description: SANGER: Inhibition of human RS4-11 cell growth in a cell viability assay.

OS-RC-2 = type: functional, cell-based, Homo sapiens; conditions: Homo sapiens, OS-RC-2;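 further: growth inhibition of human OS-RC-2 cells, measured by a cell viability assay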
Description: SANGER: Inhibition of human OS-RC-2 cell growth in a cell viability assay.

SK-NEP-1 = type: functional, cell-based, Homo sapiens; conditions: Homo sapiens, SK-NEP-1;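 further: growth inhibition of human SK-NEP-1 cells, read out by a cell viability assay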
Description: SANGER: Inhibition of human SK-NEP-1 cell growth in a cell viability assay.

CGTH-W-1 = type: functional, cell-based, Homo sapiens; conditions: Homo sapiens, CGTH-W-1;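 further: growth inhibition of human CGTH-W-1 cells measured by cell viability assay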
Description: SANGER: Inhibition of human CGTH-W-1 cell growth in a cell viability assay.

DU-4475 = type: functional, cell-based, Homo sapiens; conditions: Homo sapiens, DU-4475
Description: SANGER: Inhibition of human DU-4475 cell growth in a cell viability assay.

KS-1 = type: functional, cell-based, Homo sapiens; conditions: Homo sapiens, KS-1;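 further: growth inhibition of KS-1 cells, read out with a cell viability assay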
Description: SANGER: Inhibition of human KS-1 cell growth in a cell viability assay.

NB69 = type: functional, cell-based, Homo sapiens; conditions: Homo sapiens, NB69;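 further: growth inhibition of NB69 cells, determined by a cell viability assay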
Description: SANGER: Inhibition of human NB69 cell growth in a cell viability assay.

GI-ME-N = type: functional, cell-based, Homo sapiens; conditions: Homo sapiens, GI-ME-N;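 further: growth inhibition of human GI-ME-N cells, read out with a cell viability assay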
Description: SANGER: Inhibition of human GI-ME-N cell growth in a cell viability assay.

EM-2 = type: functional, cell-based, Homo sapiens; conditions: Homo sapiens, EM-2;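 further: growth inhibition of EM-2 cells, read out with a cell viability assay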
Description: SANGER: Inhibition of human EM-2 cell growth in a cell viability assay.

EW-24 = type: functional, cell-based, Homo sapiens; conditions: Homo sapiens, EW-24;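 further: human EW-24 cancer cell line, growth inhibition read out via a cell viability assay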
Description: SANGER: Inhibition of human EW-24 cell growth in a cell viability assay.

MOLT-16 = type: functional, cell-based, Homo sapiens; conditions: Homo sapiens, MOLT-16;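 further: growth inhibition of human MOLT-16 cells, read out with a cell viability assay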
Description: SANGER: Inhibition of human MOLT-16 cell growth in a cell viability assay.

IST-MES1 = type: functional, cell-based, Homo sapiens; conditions: Homo sapiens, IST-MES1;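 further: growth inhibition of IST-MES1 cells, measured with a cell viability assay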
Description: SANGER: Inhibition of human IST-MES1 cell growth in a cell viability assay.

K5 = type: functional, cell-based, Homo sapiens; conditions: Homo sapiens, K5
Description: SANGER: Inhibition of human K5 cell growth in a cell viability assay.

DSH1 = type: functional, cell-based, Homo sapiens; conditions: Homo sapiens, DSH1;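 further: growth inhibition of human DSH1 cells, measured with a cell viability readout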
Description: SANGER: Inhibition of human DSH1 cell growth in a cell viability assay.

BE-13 = type: functional, cell-based, Homo sapiens; conditions: Homo sapiens, BE-13;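 further: growth inhibition of human BE-13 cells, measured with a cell viability assay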
Description: SANGER: Inhibition of human BE-13 cell growth in a cell viability assay.

NCI-H1395 = type: functional, cell-based, Homo sapiens; conditions: Homo sapiens, NCI-H1395;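 further: cell viability assay read-out quantifying reduced proliferation of human NCI-H1395 cells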
Description: SANGER: Inhibition of human NCI-H1395 cell growth in a cell viability assay.

GB-1 = type: functional, cell-based, Homo sapiens; conditions: Homo sapiens, GB-1;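 further: growth of GB-1 cells judged by a viability assay, IC50 marks the concentration inhibiting growth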
Description: SANGER: Inhibition of human GB-1 cell growth in a cell viability assay.

TE-11 = type: functional, cell-based, Homo sapiens; conditions: Homo sapiens, TE-11;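 further: growth inhibition of human TE-11 cells, read out by a cell viability assay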
Description: SANGER: Inhibition of human TE-11 cell growth in a cell viability assay.

NCI-H1355 = type: functional, cell-based, Homo sapiens; conditions: Homo sapiens, NCI-H1355;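 further: growth inhibition of human NCI-H1355 cells, read out by a cell viability assay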
Description: SANGER: Inhibition of human NCI-H1355 cell growth in a cell viability assay.

HDLM-2 = type: functional, cell-based, Homo sapiens; conditions: Homo sapiens, HDLM-2;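 further: cell viability assay measuring suppression of HDLM-2 proliferation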
Description: SANGER: Inhibition of human HDLM-2 cell growth in a cell viability assay.

CAS-1 = type: functional, cell-based, Homo sapiens; conditions: Homo sapiens, CAS-1;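 further: growth inhibition of CAS-1 cells, measured with a cell viability assay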
Description: SANGER: Inhibition of human CAS-1 cell growth in a cell viability assay.

TK-10 = type: functional, cell-based, Homo sapiens; conditions: Homo sapiens, TK-10;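 further: growth inhibition of TK-10 cells, read out in a cell viability assay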
Description: SANGER: Inhibition of human TK10 cell growth in a cell viability assay.

EW-3 = type: functional, cell-based, Homo sapiens; conditions: Homo sapiens, EW-3;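 further: cell viability assay read-out, IC50 reflects inhibition of growth of the EW-3 cells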
Description: SANGER: Inhibition of human EW-3 cell growth in a cell viability assay.

TE-6 = type: functional, cell-based, Homo sapiens; conditions: Homo sapiens, TE-6;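 further: growth inhibition of TE-6 cells, read out with a cell viability assay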
Description: SANGER: Inhibition of human TE-6 cell growth in a cell viability assay.

D283 Med = type: functional, cell-based, Homo sapiens; conditions: Homo sapiens, D283 Med
Description: SANGER: Inhibition of human D-283MED cell growth in a cell viability assay.

D-502MG = type: functional, cell-based, Homo sapiens; conditions: Homo sapiens, D-502MG
Description: SANGER: Inhibition of human D-502MG cell growth in a cell viability assay.

SNU-C2B = type: functional, cell-based, Homo sapiens; conditions: Homo sapiens, SNU-C2B;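 further: cell viability readout used to measure compound-driven suppression of SNU-C2B cell proliferation, IC50 marking half-maximal growth inhibition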
Description: SANGER: Inhibition of human SNU-C2B cell growth in a cell viability assay.

NB13 = type: functional, cell-based, Homo sapiens; conditions: Homo sapiens, NB13;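 further: cell viability readout measuring growth inhibition of human NB13 cells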
Description: SANGER: Inhibition of human NB13 cell growth in a cell viability assay.

NCI-H510A = type: functional, cell-based, Homo sapiens; conditions: Homo sapiens, NCI-H510A;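 further: growth inhibition of NCI-H510A cells, read out with a cell viability assay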
Description: SANGER: Inhibition of human NCI-H510A cell growth in a cell viability assay.

IST-SL1 = type: functional, cell-based, Homo sapiens; conditions: Homo sapiens, IST-SL1;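 further: growth inhibition of human IST-SL1 cells, read out with a cell viability assay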
Description: SANGER: Inhibition of human IST-SL1 cell growth in a cell viability assay.

MMAC-SF = type: functional, cell-based, Homo sapiens; conditions: Homo sapiens, MMAC-SF;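 further: growth inhibition of human MMAC-SF cells, read out with a cell viability assay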
Description: SANGER: Inhibition of human MMAC-SF cell growth in a cell viability assay.

SK-MEL-1 = type: functional, cell-based, Homo sapiens; conditions: Homo sapiens, SK-MEL-1;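 further: growth inhibition of human SK-MEL-1 cells, read out by a cell viability assay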
Description: SANGER: Inhibition of human SK-MEL-1 cell growth in a cell viability assay.

MPP-89 = type: functional, cell-based, Homo sapiens; conditions: Homo sapiens, MPP-89;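 further: growth inhibition of human MPP-89 cells, read out with a cell viability assay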
Description: SANGER: Inhibition of human MPP-89 cell growth in a cell viability assay.

NCI-H526 = type: functional, cell-based, Homo sapiens; conditions: Homo sapiens, NCI-H526;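 further: growth inhibition of the human NCI-H526 cell line, measured by a cell viability assay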
Description: SANGER: Inhibition of human NCI-H526 cell growth in a cell viability assay.

MSTO-211H = type: functional, cell-based, Homo sapiens; conditions: Homo sapiens, MSTO-211H
Description: SANGER: Inhibition of human MSTO-211H cell growth in a cell viability assay.

NCI-H747 = type: functional, cell-based, Homo sapiens; conditions: Homo sapiens, NCI-H747;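 further: growth inhibition of human NCI-H747 cells, read out by a cell viability assay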
Description: SANGER: Inhibition of human NCI-H747 cell growth in a cell viability assay.

C2BBe1 = type: functional, cell-based, Homo sapiens; conditions: Homo sapiens, C2BBe1;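 further: growth inhibition of C2BBe1 cells, read out through a viability assay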
Description: SANGER: Inhibition of human C2BBe1 cell growth in a cell viability assay.

GI-1 = type: functional, cell-based, Homo sapiens; conditions: Homo sapiens, GI-1;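 further: growth inhibition of human GI-1 cells, measured with a cell viability readout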
Description: SANGER: Inhibition of human GI-1 cell growth in a cell viability assay.

NCI-H1304 = type: functional, cell-based, Homo sapiens; conditions: Homo sapiens, NCI-H1304;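 further: growth inhibition of the cancer cell line, measured in a cell viability assay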
Description: SANGER: Inhibition of human NCI-H1304 cell growth in a cell viability assay.

C=C(c1ccc(C(=O)O)cc1)c1cc2c(cc1C)C(C)(C)CCC2(C)C [BEXAROTENE]
IC50 (OCUB-M): 1020 nM
IC50 (Ramos-2G6-4C10): > 8000 nM
IC50 (GOTO): > 8000 nM
IC50 (IA-LM): 7360 nM
IC50 (RCC10RGB): > 8000 nM
IC50 (U-87 MG): > 8000 nM
IC50 (HOP-62): > 8000 nM
IC50 (EW-11): > 8000 nM
IC50 (U-266): > 8000 nM
IC50 (RS4-11): > 8000 nM
IC50 (OS-RC-2): > 8000 nM
IC50 (SK-NEP-1): > 8000 nM
IC50 (CGTH-W-1): > 8000 nM
IC50 (DU-4475): > 8000 nM
IC50 (KS-1): > 8000 nM
IC50 (NB69): > 8000 nM
IC50 (GI-ME-N): > 8000 nM
IC50 (EM-2): > 8000 nM
IC50 (EW-24): > 8000 nM
IC50 (MOLT-16): > 8000 nM
IC50 (IST-MES1): > 8000 nM
IC50 (K5): > 8000 nM
IC50 (DSH1): > 8000 nM
IC50 (BE-13): > 8000 nM
IC50 (NCI-H1395): > 8000 nM
IC50 (GB-1): > 8000 nM
IC50 (TE-11): > 8000 nM
IC50 (NCI-H1355): > 8000 nM
IC50 (HDLM-2): > 8000 nM
IC50 (CAS-1): > 8000 nM
IC50 (TK-10): > 8000 nM
IC50 (EW-3): > 8000 nM
IC50 (TE-6): > 8000 nM
IC50 (D283 Med): > 8000 nM
IC50 (D-502MG): > 8000 nM
IC50 (SNU-C2B): > 8000 nM
IC50 (NB13): > 8000 nM
IC50 (NCI-H510A): > 8000 nM
IC50 (IST-SL1): > 8000 nM
IC50 (MMAC-SF): > 8000 nM
IC50 (SK-MEL-1): > 8000 nM
IC50 (MPP-89): > 8000 nM
IC50 (NCI-H526): > 8000 nM
IC50 (MSTO-211H): > 8000 nM
IC50 (NCI-H747): > 8000 nM
IC50 (C2BBe1): > 8000 nM
IC50 (GI-1): > 8000 nM
IC50 (NCI-H1304): > 8000 nM

CCC/C=C/C=C/C(=O)O[C@H]1/C(=C/C(=O)OC)C[C@H]2C[C@H]([C@@H](C)O)OC(=O)C[C@H](O)C[C@@H]3C[C@H](OC(C)=O)C(C)(C)[C@](O)(C[C@@H]4C/C(=C/C(=O)OC)C[C@H](/C=C/C(C)(C)[C@]1(O)O2)O4)O3 [BRYOSTATIN 1]
IC50 (OCUB-M): > 8 nM
IC50 (Ramos-2G6-4C10): > 8 nM
IC50 (GOTO): > 8 nM
IC50 (IA-LM): > 8 nM
IC50 (RCC10RGB): > 8 nM
IC50 (U-87 MG): > 8 nM
IC50 (HOP-62): > 8 nM
IC50 (EW-11): > 8 nM
IC50 (U-266): > 8 nM
IC50 (RS4-11): > 8 nM
IC50 (OS-RC-2): > 8 nM
IC50 (SK-NEP-1): > 8 nM
IC50 (CGTH-W-1): > 8 nM
IC50 (DU-4475): > 8 nM
IC50 (KS-1): > 8 nM
IC50 (NB69): > 8 nM
IC50 (GI-ME-N): > 8 nM
IC50 (EM-2): > 8 nM
IC50 (EW-24): > 8 nM
IC50 (MOLT-16): > 8 nM
IC50 (IST-MES1): > 8 nM
IC50 (K5): > 8 nM
IC50 (DSH1): > 8 nM
IC50 (BE-13): > 8 nM
IC50 (NCI-H1395): > 8 nM
IC50 (GB-1): > 8 nM
IC50 (TE-11): > 8 nM
IC50 (NCI-H1355): > 8 nM
IC50 (HDLM-2): > 8 nM
IC50 (CAS-1): > 8 nM
IC50 (TK-10): > 8 nM
IC50 (EW-3): > 8 nM
IC50 (TE-6): > 8 nM
IC50 (D283 Med): > 8 nM
IC50 (D-502MG): > 8 nM
IC50 (SNU-C2B): > 8 nM
IC50 (NB13): > 8 nM
IC50 (NCI-H510A): > 8 nM
IC50 (IST-SL1): > 8 nM
IC50 (MMAC-SF): > 8 nM
IC50 (SK-MEL-1): > 8 nM
IC50 (MPP-89): > 8 nM
IC50 (NCI-H526): > 8 nM
IC50 (MSTO-211H): > 8 nM
IC50 (NCI-H747): > 8 nM
IC50 (C2BBe1): > 8 nM
IC50 (GI-1): > 8 nM
IC50 (NCI-H1304): > 8 nM

COc1cccc2c1C(=O)c1c(O)c3c(c(O)c1C2=O)C[C@@](O)(C(=O)CO)C[C@@H]3O[C@H]1C[C@H](N)[C@H](O)[C@H](C)O1 [DOXORUBICIN]
IC50 (OCUB-M): 15.2 nM
IC50 (Ramos-2G6-4C10): 295 nM
IC50 (GOTO): 286 nM
IC50 (IA-LM): 63.5 nM
IC50 (RCC10RGB): > 1020 nM
IC50 (U-87 MG): 346 nM
IC50 (HOP-62): 35.9 nM
IC50 (EW-11): 342 nM
IC50 (U-266): 451 nM
IC50 (RS4-11): 19.1 nM
IC50 (OS-RC-2): 182 nM
IC50 (SK-NEP-1): 116 nM
IC50 (CGTH-W-1): 53.5 nM
IC50 (DU-4475): 12.1 nM
IC50 (KS-1): 3.44 nM
IC50 (NB69): 79.2 nM
IC50 (GI-ME-N): 93.3 nM
IC50 (EM-2): 325 nM
IC50 (EW-24): 970 nM
IC50 (MOLT-16): 290 nM
IC50 (IST-MES1): 323 nM
IC50 (K5): 96.9 nM
IC50 (DSH1): 373 nM
IC50 (BE-13): 51 nM
IC50 (NCI-H1395): > 1020 nM
IC50 (GB-1): 213 nM
IC50 (TE-11): 241 nM
IC50 (NCI-H1355): 152 nM
IC50 (HDLM-2): 569 nM
IC50 (CAS-1): 238 nM
IC50 (TK-10): 115 nM
IC50 (EW-3): 280 nM
IC50 (TE-6): 470 nM
IC50 (D283 Med): 250 nM
IC50 (D-502MG): > 1020 nM
IC50 (SNU-C2B): 461 nM
IC50 (NB13): 135 nM
IC50 (NCI-H510A): 360 nM
IC50 (IST-SL1): 517 nM
IC50 (MMAC-SF): 106 nM
IC50 (SK-MEL-1): > 1020 nM
IC50 (MPP-89): 393 nM
IC50 (NCI-H526): 50 nM
IC50 (MSTO-211H): > 1020 nM
IC50 (NCI-H747): 135 nM
IC50 (C2BBe1): > 1020 nM
IC50 (GI-1): 69.7 nM
IC50 (NCI-H1304): 321 nM
